Literature values as cited in PMC7998273, “Zein Nanoparticles Improve the Oral Bioavailability of Curcumin in Wistar Rats” (Pharmaceutics, 2021).

Design: method as in PMID 17400527
Settings: orally administered

Oral bioavailability: ca. 1%
SMILES: COc1cc(/C=C/C(=O)CC(=O)/C=C/c2ccc(O)c(OC)c2)ccc1O [CC, curcumin]
